Source: US20250302866A1, “POLYMER AGENTS FOR CARDIOPULMONARY RESUSCITATION” (VIRGINIA COMMONWEALTH UNIVERSITY, priority 2019, published 2025)

Legend:
[1] = system: patients with SCA; settings: cited from earlier work
[2] = system: rat model of cardiac arrest and cardiopulmonary resuscitation; experiment: Buccal microcirculation (MFI, PVD) by side-stream dark-field imaging; type: in vivo, Sprague-Dawley rats; settings: 1, 3, and 5 hours after ROSC; PEG-20k vs other 3 groups; p<0.05; FIG. 3
Protocol: (§1) Male Sprague-Dawley rats weighing 450-550 g were utilized in this study. After induction of anesthesia with inhalation of CO2 for about 30 seconds, the animals were anesthetized by intraperitoneal injection of pentobarbital (45 mg/kg). Additional doses (10 mg/kg) were administered when required to maintain anesthesia. After no response to stimuli, the animals were shaved. The trachea was orally intubated with a 14-G cannula mounted on a blunt needle (Abbocath-T; Abbott Hospital Products Division, North Chicago, IL, USA) with a 145-degree angled tip. End-tidal CO2 was continuously monitored with a side-stream infrared CO2 analyzer (Capstar-100 Carbon Dioxide Analyzer; CWE, Ardmore, PA) interposed between the tracheal cannula and the ventilator. A conventional lead II EKG was continuously monitored. Through the left external jugular vein, a PE-50 catheter (Becton Dickinson, Sparks, MD, USA) was advanced into the right atrium for measurement of right atrial pressures. A 3-F catheter (Model C-PMS-301J; Cook Critical Care, Bloomington, IN, USA) was advanced through the right external jugular vein into the right ventricle. For blood pressure measurements within the descending aorta and PEG-20k administration, PE-50 catheters were advanced into the descending aorta from the left femoral artery and the right femoral artery respectively. […]

[3] = system: rat model of cardiac arrest and cardiopulmonary resuscitation; experiment: Duration of survival after resuscitation; type: in vivo, Sprague-Dawley rats; settings: 6 resuscitated rats in each group
[4] = system: patients with out-of-hospital cardiac arrest; settings: prehospital epinephrine use; cited from earlier work
[5] = system: rat model of cardiac arrest and cardiopulmonary resuscitation; experiment: Coronary perfusion pressure, defibrillations and arrhythmia in a rat model of cardiac arrest and CPR; type: in vivo, Sprague-Dawley rats; settings: mean±SD
Protocol: as §1

[6] = system: rat model of cardiac arrest and cardiopulmonary resuscitation; experiment: Post-resuscitation myocardial function by echocardiography (CO, EF, MPI); type: in vivo, Sprague-Dawley rats; settings: 2, 4, and 6 hours after ROSC; PEG-20k vs other 3 groups, epinephrine vs saline placebo and saline-A; p<0.05; FIG. 2
Protocol: as §1

## CNC[C@H](O)c1ccc(O)c(O)c1 [Epinephrine]
[1]
  Rate of ROSC vs placebo: significantly higher rate of ROSC than placebo
[1]; vs placebo group
  Rate of survival with a favorable neurologic outcome: as low as the rate in the placebo group
[2]
  Buccal microcirculation PVD and MFI values: significantly decreased
[3]
  Rats survived more than 24 hours: one
[4]
  Chance of ROSC before hospital arrival: increased chance of ROSC
  Chance of survival and good functional outcomes 1 month after the event: decreased chance of survival and good functional outcomes
[5]; after resuscitation
  Arrhythmia duration: 14.00 ± 5.35
[5]; defibrillations required for conversion to viable rhythm and ROSC, drug infused for 3 minutes after 4 minutes of precordial compression
  Number of defibrillations: 5.50 ± 2.88
[6]
  PR myocardial function (CO, EF, MPI): increased the severity of PR myocardial dysfunction
